{
  "source": "patent US20060204571A1",
  "about": "“Stable compositions of bupropion or its pharmaceutically acceptable salts” (Sun Pharmaceutical Industries Limited, priority 2005, published 2006)",
  "origin": "cited, not measured here",
  "settings": "background statement",
  "data": [
    {"smiles": "CC(NC(C)(C)C)C(=O)c1cccc(Cl)c1.Cl", "note": "(racemic) [Bupropion hydrochloride, (±)-1-(3-chlorophenyl)-2-[(1,1-dimethylethyl)amino]-1-propanone hydrochloride]", "values": [
      {"measurement": "solubility in water (in words)", "value": "water-soluble"}
    ]}
  ]
}
